6 molecules from ChEMBL document CHEMBL3994575, “Helixconstraints and amino acid substitution in GLP-1 increase cAMP and insulin secretion but not beta-arrestin 2 signaling” (Eur J Med Chem, 2017) can be followed below.

By EC50 is commonly meant the concentration that produces a half-maximal response. As usually defined, the Ki is the equilibrium dissociation constant of an inhibitor or competing ligand from its target. A higher Ki goes with lower affinity.

For assay [1], the target named is T1, Glucagon-like peptide 1 receptor (Rattus norvegicus, UniProt P32301).
T1 sequence (P32301 whole entry): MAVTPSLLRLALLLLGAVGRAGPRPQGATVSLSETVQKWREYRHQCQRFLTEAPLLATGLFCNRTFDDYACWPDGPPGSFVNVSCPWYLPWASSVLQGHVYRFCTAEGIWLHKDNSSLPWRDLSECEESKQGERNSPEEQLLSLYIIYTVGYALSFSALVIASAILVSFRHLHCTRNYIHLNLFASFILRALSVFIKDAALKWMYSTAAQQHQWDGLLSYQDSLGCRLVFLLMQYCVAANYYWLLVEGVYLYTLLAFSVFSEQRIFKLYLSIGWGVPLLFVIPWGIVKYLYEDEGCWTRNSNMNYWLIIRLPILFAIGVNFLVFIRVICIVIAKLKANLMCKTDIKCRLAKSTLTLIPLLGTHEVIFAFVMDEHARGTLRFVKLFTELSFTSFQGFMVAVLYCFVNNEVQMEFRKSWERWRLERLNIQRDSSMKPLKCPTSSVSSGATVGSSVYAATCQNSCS
Nature of the assay: Agonist activity at GLP1R in rat INS-1 cells assessed as increase in glucose-stimulated insulin secretion after 1 hr by HTRF assay. Type of assay: cell-based.

The target in assay [2] is T2, Glucagon-like peptide 1 receptor (Homo sapiens, UniProt P43220). The experiment in a line: Agonist activity at human GLP1R expressed in CHOK1 cells assessed as induction of beta-galactosidase-tagged beta-arrestin2 recruitment incubated for 90 mins by PathHunter enzyme complementation assay. It is filed as cell-based. Background: Recruitment of arrestin is a read-out of receptor activation apart from second messengers.
T2 sequence (P43220 whole entry): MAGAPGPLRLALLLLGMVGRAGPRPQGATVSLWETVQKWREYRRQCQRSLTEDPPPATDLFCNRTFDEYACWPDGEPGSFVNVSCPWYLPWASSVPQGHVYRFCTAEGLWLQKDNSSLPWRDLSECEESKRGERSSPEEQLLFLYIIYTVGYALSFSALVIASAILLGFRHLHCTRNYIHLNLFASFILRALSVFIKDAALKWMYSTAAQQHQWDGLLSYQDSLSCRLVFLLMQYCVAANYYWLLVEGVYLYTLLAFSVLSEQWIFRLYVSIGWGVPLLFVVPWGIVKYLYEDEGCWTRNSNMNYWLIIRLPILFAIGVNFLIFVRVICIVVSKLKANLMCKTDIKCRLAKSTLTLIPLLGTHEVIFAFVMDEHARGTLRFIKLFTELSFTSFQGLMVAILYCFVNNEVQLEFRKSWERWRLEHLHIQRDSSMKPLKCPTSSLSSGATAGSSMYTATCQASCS

The target of assay [3] is T2, Glucagon-like peptide 1 receptor. The experiment in a line: Agonist activity at human GLP1R expressed in CHO cells assessed as cAMP accumulation incubated for 30 mins by LANCE assay. Type of assay: functional, cell-based.
Assay [4] has the same target. The experiment in a line: Displacement of [125I]-GLP (7 to 36 residues) from human GLP1R expressed in CHO cell membranes incubated for 30 mins measured after 10 hrs by scintillation proximity assay. On the technique in general: In a radioligand displacement assay an active substance lowers the binding of a labelled ligand.

Positions of bridges follow the written chain, without caps; N, C: chain ends. Residues, ends and D or L forms follow the SMILES beside them. Bounds are passed on as bounds.

Regarding `CC[C@H](C)[C@H](NC(=O)[C@H](Cc1ccccc1)NC(=O)[C@H](CCC(=O)O)NC(=O)[C@H](CCCCN)NC(=O)[C@H](C)NC(=O)[C@H](C)NC(=O)[C@H](CCC(N)=O)NC(=O)CNC(=O)[C@H](CCC(=O)O)NC(=O)[C@H](CC(C)C)NC(=O)[C@H](Cc1ccc(O)cc1)NC(=O)[C@H](CO)NC(=O)[C@H](Cc1ccc(O)cc1)NC(=O)[C@@H](NC(=O)[C@H](CC(=O)O)NC(=O)[C@H](CO)NC(=O)[C@@H](NC(=O)[C@H](Cc1ccccc1)NC(=O)[C@@H](NC(=O)CNC(=O)[C@H](CCC(=O)O)NC(=O)[C@H](C)NC(=O)[C@@H](N)Cc1cnc[nH]1)[C@@H](C)O)[C@@H](C)O)C(C)C)C(=O)N[C@@H](C)C(=O)N[C@@H](Cc1c[nH]c2ccccc12)C(=O)N[C@@H](CC(C)C)C(=O)N[C@H](C(=O)N[C@@H](CCCCN)C(=O)NCC(=O)N[C@@H](CCCNC(=N)N)C(=O)NCC(N)=O)C(C)C`, in assay [1], the EC50 stood at 16 nM.

As for `CC[C@H](C)[C@H](NC(=O)[C@H](Cc1ccccc1)NC(=O)[C@H](CCC(=O)O)NC(=O)[C@H](CCCCN)NC(=O)[C@H](C)NC(=O)[C@H](C)NC(=O)[C@H](CCC(N)=O)NC(=O)CNC(=O)[C@H](CCC(=O)O)NC(=O)[C@H](CC(C)C)NC(=O)[C@H](Cc1ccc(O)cc1)NC(=O)[C@@H]1CC(=O)NCCCC[C@H](NC(=O)[C@@H](NC(=O)[C@H](Cc2ccccc2)NC(=O)[C@@H](NC(=O)CNC(=O)[C@H](CCC(=O)O)NC(=O)[C@H](C)NC(=O)[C@@H](N)Cc2cnc[nH]2)[C@@H](C)O)[C@@H](C)O)C(=O)N[C@@H](CC(=O)O)C(=O)N[C@@H](C(C)C)C(=O)N[C@@H](CO)C(=O)N1)C(=O)N[C@@H](C)C(=O)N[C@@H](Cc1c[nH]c2ccccc12)C(=O)N[C@@H](CC(C)C)C(=O)N[C@H](C(=O)N[C@@H](CCCCN)C(=O)NCC(=O)N[C@@H](CCCNC(=N)N)C(=O)NCC(N)=O)C(C)C` (H-HAEGTFTKDVSDYLEGQAAKEFIAWLVKGRG-NH2; lactam 8-12), the EC50 in assay [1] was 50 nM.

For `CC[C@H](C)[C@H](NC(=O)[C@H](Cc1ccccc1)NC(=O)[C@H](CCC(=O)O)NC(=O)[C@H](CCCCN)NC(=O)[C@H](C)NC(=O)[C@H](C)NC(=O)[C@H](CCC(N)=O)NC(=O)[C@H](C)NC(=O)[C@H](CCC(=O)O)NC(=O)[C@@H]1CC(=O)NCCCC[C@H](NC(=O)[C@H](CC(=O)O)NC(=O)[C@H](CO)NC(=O)[C@@H](NC(=O)[C@H](Cc2ccccc2)NC(=O)[C@@H](NC(=O)CNC(=O)[C@H](CCC(=O)O)NC(=O)[C@H](C)NC(=O)[C@@H](N)Cc2cnc[nH]2)[C@@H](C)O)[C@@H](C)O)C(=O)N[C@@H](CO)C(=O)N[C@@H](CO)C(=O)N[C@@H](Cc2ccc(O)cc2)C(=O)N1)C(=O)N[C@H]1CCCCNC(=O)C[C@@H](C(=O)NCC(=O)N[C@@H](CCCNC(=N)N)C(=O)NCC(N)=O)NC(=O)[C@H](C(C)C)NC(=O)[C@H](CC(C)C)NC(=O)[C@H](Cc2c[nH]c3ccccc23)NC1=O` (H-HAEGTFTSDKSSYDEAQAAKEFIKWLVDGRG-NH2; lactam 10-14, 24-28), the concentration for a half-maximal effect (EC50) in assay [2] turned out to be 11 nM; in assay [3], 0.004 nM; in assay [1], 0.25 nM. Also, the Ki in assay [4] is 1.4 nM.

`CC[C@H](C)[C@H](NC(=O)[C@H](Cc1ccccc1)NC(=O)[C@H](CCC(=O)O)NC(=O)[C@H](CCCCN)NC(=O)[C@H](C)NC(=O)[C@H](C)NC(=O)[C@H](CCC(N)=O)NC(=O)CNC(=O)[C@@H]1CCCN1C(=O)[C@H](CC(C)C)NC(=O)[C@H](Cc1ccc(O)cc1)NC(=O)[C@H](CO)NC(=O)[C@H](CO)NC(=O)[C@@H](NC(=O)[C@H](CC(=O)O)NC(=O)[C@H](CO)NC(=O)[C@@H](NC(=O)[C@H](Cc1ccccc1)NC(=O)[C@@H](NC(=O)CNC(=O)[C@H](CCC(=O)O)NC(=O)[C@H](C)NC(=O)[C@@H](N)Cc1cnc[nH]1)[C@@H](C)O)[C@@H](C)O)C(C)C)C(=O)N[C@H]1CCCCNC(=O)C[C@@H](C(=O)NCC(=O)N[C@@H](CCCNC(=N)N)C(=O)NCC(N)=O)NC(=O)[C@H](C(C)C)NC(=O)[C@H](CC(C)C)NC(=O)[C@H](Cc2c[nH]c3ccccc23)NC1=O` (H-HAEGTFTSDVSSYLPGQAAKEFIKWLVDGRG-NH2; lactam 24-28): the EC50 in assay [2] was > 1000 nM; in assay [3], 20 nM; in assay [1], 130 nM. In addition, in assay [4], the Ki was > 50 nM.

In the case of `CC[C@H](C)[C@H](NC(=O)[C@H](Cc1ccccc1)NC(=O)[C@H](CCC(=O)O)NC(=O)[C@H](CCCCN)NC(=O)[C@H](C)NC(=O)[C@H](C)NC(=O)[C@H](CCC(N)=O)NC(=O)[C@H](C)NC(=O)[C@H](CCC(=O)O)NC(=O)[C@H](CC(C)C)NC(=O)[C@H](Cc1ccc(O)cc1)NC(=O)[C@H](CO)NC(=O)[C@H](CO)NC(=O)[C@H](Cc1ccc(O)cc1)NC(=O)[C@H](CC(=O)O)NC(=O)[C@H](CO)NC(=O)[C@@H](NC(=O)[C@H](Cc1ccccc1)NC(=O)[C@@H](NC(=O)CNC(=O)[C@H](CCC(=O)O)NC(=O)[C@H](C)NC(=O)[C@@H](N)Cc1cnc[nH]1)[C@@H](C)O)[C@@H](C)O)C(=O)N[C@H]1CCCCNC(=O)C[C@@H](C(=O)NCC(=O)N[C@@H](CCCNC(=N)N)C(=O)NCC(N)=O)NC(=O)[C@H](C(C)C)NC(=O)[C@H](CC(C)C)NC(=O)[C@H](Cc2c[nH]c3ccccc23)NC1=O` (H-HAEGTFTSDYSSYLEAQAAKEFIKWLVDGRG-NH2; lactam 24-28), the EC50 amounted to 4.6 nM in assay [2] and 0.011 nM in assay [3]. For the same molecule, the Ki in assay [4] turned out to be 0.47 nM.

For `CC[C@H](C)[C@H](NC(=O)[C@H](Cc1ccccc1)NC(=O)[C@H](CCC(=O)O)NC(=O)[C@H](CCCCN)NC(=O)[C@H](C)NC(=O)[C@H](C)NC(=O)[C@H](CCC(N)=O)NC(=O)CNC(=O)[C@H](CCC(=O)O)NC(=O)[C@H](CC(C)C)NC(=O)[C@H](Cc1ccc(O)cc1)NC(=O)[C@H](CO)NC(=O)[C@H](CO)NC(=O)[C@H](Cc1ccc(O)cc1)NC(=O)[C@H](CC(=O)O)NC(=O)[C@H](CO)NC(=O)[C@@H](NC(=O)[C@H](Cc1ccccc1)NC(=O)[C@@H](NC(=O)CNC(=O)[C@H](CCC(=O)O)NC(=O)[C@H](C)NC(=O)[C@@H](N)Cc1cnc[nH]1)[C@@H](C)O)[C@@H](C)O)C(=O)N[C@H]1CCCCNC(=O)C[C@@H](C(=O)NCC(=O)N[C@@H](CCCNC(=N)N)C(=O)NCC(N)=O)NC(=O)[C@H](C(C)C)NC(=O)[C@H](CC(C)C)NC(=O)[C@H](Cc2c[nH]c3ccccc23)NC1=O` (H-HAEGTFTSDYSSYLEGQAAKEFIKWLVDGRG-NH2; lactam 24-28), the EC50 in assay [2] amounted to 3.4 nM; in assay [3], 0.023 nM. Besides, the Ki in assay [4] turned out to be 0.49 nM.
